Here are results for one compound from patent US20010051631A1, “Tricyclic compounds, their production and use” (priority 1994, published 2001).

Molecules are shown by their SMILES.

For this assay, the system named is Hs68 cells. Put plainly: PDGF-induced proliferation in Hs68 cells (3H-thymidine uptake). It is filed as cell-based, Human. To be noted: Hs68, PDGF-BB 5 ng/ml, concentration 1 × 10^−6 M. The method, then: Method: Human skin fibroblasts (Hs68, Institute for Fermentation, Osaka) were seeded in 48-well plates precoated with collagen type I (Falcon) (25000 cells/well), and cultured for one day. Then, the cells were cultured in Dulbecco's modified Eagle's medium (high glucose) containing 0.1% bovine serum albumin for 48 hours. Fifteen (15) minutes after the addition of the drug, the cells were stimulated with 5 ng/ml of PDGF-BB (Becton Dickinson Labware) containing 3H-thymidine (final concentration 0.4 mCi/ml) (Amersham). After 24 hours, the reaction was stopped with 7.5% trichloroacetic acid at 4° C. and the plate was allowed to stand at 4° C. for 30 minutes. The cells were washed with Ca^2+- and Mg^2-free phosphate-buffered saline (PBS), after then 0.1% sodium dodecyl sulfate (SDS)/0.4N NaOH was added and the plate was allowed to stand at 37° C. for 1 hour to lyze the cells. The whole content of each well was taken in a vial and neutralized with 1N HCl, and then toluene scintillator (Wako Pure Chemical Ind.) was added to each vial. After stirring, the amount of ^3H-thymidine incorporated in the cells was determined with a liquid scintillation counter. The cellular uptake of ^3H-thymidine was used as an indicator of cell proliferation. The effect of the drug on the PDGF-BB (5 ng/ml) uptake of ^3H-thymidine was expressed as % inhibition.

As to `O=C1c2cnc3cccc(n23)CN1CCC1CCN(S(=O)(=O)C(F)(F)F)CC1` [86 (ii), 4,5-dihydro-4-[2-(1-trifluoromethane-sulfonylpiperidin-4-yl)ethan-1-yl]-3H-1,4,8b-triazaace-naphthylen-3-one], the “% Inhibition of cell proliferation (3H-thymidine uptake)” value is on record as 96.6%.
